Values after ≈ are worked out from the molar mass of the structure shown.

Assay [1] concerns Staphylococcus aureus. Put plainly: Antibacterial activity against methicillin resistant Staphylococcus aureus 42 assessed as inhibition of bacterial growth. In kind it is functional.
In assay [2] the test system is Staphylococcus aureus. The assay is described as follows: Antibacterial activity against methicillin resistant Staphylococcus aureus 128 assessed as inhibition of bacterial growth. In kind it is functional.
For assay [3], the system named is Staphylococcus aureus. Put plainly: Antibacterial activity against methicillin resistant Staphylococcus aureus 181 assessed as inhibition of bacterial growth. The assay is classed as functional.
Assay [4] relates to Staphylococcus aureus. The assay is described as follows: Antibacterial activity against methicillin resistant Staphylococcus aureus 747 assessed as inhibition of bacterial growth. The assay is classed as functional.
For assay [5], the system named is Staphylococcus aureus. The assay is described as follows: Antibiofilm activity against methicillin resistant Staphylococcus aureus ATCC 43866 assessed as inhibition of biofilm formation incubated for 18 to 24 hrs by tissue culture plate method. In kind it is functional. The note with it: time 18-24 hrs.
Assay [6] has as its system Staphylococcus aureus. Put plainly: microbe, parasite or virus in culture. The settings on record: 032.
Description: Antibacterial activity against methicillin resistant Staphylococcus aureus 032 assessed as inhibition of bacterial growth by CLSI protocol based serial dilution method
Assay [7] deals with Staphylococcus aureus. Put plainly: Antibacterial activity against methicillin resistant Staphylococcus aureus assessed as inhibition zone by disc diffusion method. In kind it is functional. (In general: A growth-free zone around the sample is the usual read-out of agar diffusion tests.)
The subject of assay [8] is Staphylococcus aureus. The assay is described as follows: Antibacterial activity against methicillin resistant Staphylococcus aureus assessed as inhibition of bacterial growth by broth dilution technique. In kind it is functional. On the technique in general: Dilution methods test growth across graded concentrations, often in twofold steps.

With `O=c1c(Br)cnc2onc(-c3ccc(Cl)cc3)n12`, the MIC with Staphylococcus aureus [1] amounted to 96.4 µg/mL (≈ 295 µM); in the assay with Staphylococcus aureus [2], 96.3 µg/mL (≈ 295 µM); in the assay with Staphylococcus aureus [3], 53.6 µg/mL (≈ 164 µM); in the assay on Staphylococcus aureus [4] it was 59.4 µg/mL (≈ 182 µM).
With `Cn1c(-c2nnc(-c3ccc([N+](=O)[O-])cc3)o2)cc(Br)c1Br`, the MIC with Staphylococcus aureus [5] came out at 3.12 µg/mL (≈ 7.3 µM).
Regarding `Cc1nc(/C(=C\c2coc3ccc(F)cc3c2=O)c2ccc([N+](=O)[O-])cc2)no1`, in the assay with Staphylococcus aureus [6], the MIC was more than 32 µg/mL.
On to `O=c1c(F)cnc2onc(-c3ccc(F)cc3F)n12`, for which the MIC in the assay on Staphylococcus aureus [1] is 96.4 µg/mL (≈ 361 µM); with Staphylococcus aureus [2] it was 87.4 µg/mL (≈ 327 µM); in the assay with Staphylococcus aureus [3] it was 100 µg/mL (≈ 375 µM); with Staphylococcus aureus [4], not below 125 µg/mL.
In the case of `CCCCCCCCCCCCCCC(Br)c1nnc(-c2ccccc2Cl)o1` (stereo not drawn), the “inhibition zone (IZ)” value in the assay on Staphylococcus aureus [7] worked out at 20.5 mm. Further, in the assay on Staphylococcus aureus [8], the MIC amounted to 12.5 µg/mL (≈ 26.6 µM).
Consider `CCCCC/C=C/CCC(O)CCCCCCc1nnc(-c2ccccc2Cl)o1` (stereo not drawn), for which, in the assay with Staphylococcus aureus [7], the “inhibition zone (IZ)” value is reported as 19.7 mm. Further, in the assay on Staphylococcus aureus [8], the MIC was 12.5 µg/mL (≈ 29.8 µM).
`CCCCCCCC/C=C/CCCCCCc1nnc(-c2ccccc2Cl)o1`: the “inhibition zone (IZ)” value in the assay on Staphylococcus aureus [7] is listed as 16.6 mm. The MIC in the assay with Staphylococcus aureus [8] came out at 12.5 µg/mL (≈ 31 µM).
For the compound `O=c1c(Br)cnc2onc(-c3cccc(F)c3F)n12`, the MIC stood at 20.8 µg/mL (≈ 63.4 µM) with Staphylococcus aureus [1], 37.8 µg/mL (≈ 115 µM) in the assay with Staphylococcus aureus [2], 42.1 µg/mL (≈ 128 µM) in the assay on Staphylococcus aureus [3] and 42.1 µg/mL (≈ 128 µM) in the assay on Staphylococcus aureus [4].
As for `Cc1nc(/C(=C\c2coc3ccccc3c2=O)c2ccc([N+](=O)[O-])cc2)no1`, the MIC against Staphylococcus aureus [6] was more than 32 µg/mL.
Regarding `Cc1nc(/C(=C\c2coc3ccc(Br)cc3c2=O)c2ccc([N+](=O)[O-])cc2)no1`, the MIC with Staphylococcus aureus [6] is more than 32 µg/mL.
Regarding `O=c1c(F)cnc2onc(-c3cccc(Cl)c3Cl)n12`, the MIC is 101 µg/mL (≈ 336 µM) with Staphylococcus aureus [1], not below 125 µg/mL in the assay with Staphylococcus aureus [2], not below 125 µg/mL in the assay with Staphylococcus aureus [3] and not below 125 µg/mL in the assay on Staphylococcus aureus [4].
Regarding `Cn1c(-c2nnc(-c3ccc(Cl)cc3)o2)cc(Br)c1Br`, the MIC in the assay on Staphylococcus aureus [5] was determined as 1.56 µg/mL (≈ 3.74 µM).
For `CC1(C)S[C@@H]2[C@H](NC(=O)[C@H](N)c3ccccc3)C(=O)N2[C@H]1C(=O)O` [AMPICILLIN], the MIC against Staphylococcus aureus [6] is more than 32 µg/mL.
Compound `Cc1nc(/C(=C\c2coc3c(Cl)cc(Cl)cc3c2=O)c2ccc([N+](=O)[O-])cc2)no1` gave an MIC against Staphylococcus aureus [6] of 32 µg/mL (≈ 72 µM).
In the case of `CCCC(O)C/C=C/CCCCCCc1nnc(-c2ccccc2Cl)o1` (stereo not drawn), the “inhibition zone (IZ)” value in the assay on Staphylococcus aureus [7] is on record as 19.5 mm. In the assay with Staphylococcus aureus [8], the MIC worked out at 12.5 µg/mL (≈ 33.2 µM).
Regarding `CCCCCCCCCCCCCCc1nnc(-c2ccco2)o1`, in the assay with Staphylococcus aureus [7], the “inhibition zone (IZ)” value is 15.5 mm. The MIC in the assay with Staphylococcus aureus [8] stood at 12.5 µg/mL (≈ 37.6 µM).
In the case of `Cn1c(-c2nnc(-c3ccncc3)o2)cc(Br)c1Br`, the MIC in the assay with Staphylococcus aureus [5] was 3.12 µg/mL (≈ 8.14 µM).
With `CCCCC/C=C/CCC(O)CCCCCCc1nnc(-c2ccco2)o1` (stereo not drawn), the “inhibition zone (IZ)” value in the assay with Staphylococcus aureus [7] is recorded as 13.2 mm. Moreover, in the assay on Staphylococcus aureus [8], the MIC came out at 12.5 µg/mL (≈ 33.4 µM).
Regarding `CO/N=C(\C(=O)N[C@@H]1C(=O)N2C(C(=O)[O-])=C(C[N+]3(C)CCCC3)CS[C@H]12)c1csc(N)n1`, the MIC was 36.5 µg/mL (≈ 76 µM) in the assay on Staphylococcus aureus [1], 20 µg/mL (≈ 41.6 µM) in the assay with Staphylococcus aureus [2], 15.2 µg/mL (≈ 31.6 µM) in the assay on Staphylococcus aureus [3] and 26.9 µg/mL (≈ 56 µM) with Staphylococcus aureus [4].
In the case of `O=c1c(F)cnc2onc(-c3c(F)cccc3F)n12`, the MIC in the assay with Staphylococcus aureus [1] is 122 µg/mL (≈ 458 µM); in the assay on Staphylococcus aureus [2], not below 125 µg/mL; with Staphylococcus aureus [3], 120 µg/mL (≈ 447 µM); in the assay on Staphylococcus aureus [4], not below 125 µg/mL.
Compound `Cc1nc(/C(=C\c2coc3ccc(Cl)cc3c2=O)c2ccc([N+](=O)[O-])cc2)no1` came in with an MIC in the assay with Staphylococcus aureus [6] of more than 32 µg/mL.
On to `O=c1c(Br)cnc2onc(-c3cccc(Cl)c3Cl)n12`, for which the MIC in the assay with Staphylococcus aureus [1] was 86.2 µg/mL (≈ 239 µM); in the assay on Staphylococcus aureus [2] it was 90.3 µg/mL (≈ 250 µM); with Staphylococcus aureus [3], not below 125 µg/mL; with Staphylococcus aureus [4], not below 125 µg/mL.
`Cc1ccc2occ(/C=C(/c3ccc([N+](=O)[O-])cc3)c3noc(C)n3)c(=O)c2c1` yielded an MIC in the assay on Staphylococcus aureus [6] of more than 32 µg/mL.
With `CCCC(O)C/C=C/CCCCCCc1nnc(-c2ccco2)o1` (stereo not drawn), in the assay with Staphylococcus aureus [7], the “inhibition zone (IZ)” value was 18.3 mm. Besides, in the assay with Staphylococcus aureus [8], the MIC was found to be 12.5 µg/mL (≈ 37.6 µM).
Take `Cn1c(-c2nnc(-c3ccccc3)o2)cc(Br)c1Br`: the MIC with Staphylococcus aureus [5] stood at 6.25 µg/mL (≈ 16.3 µM).
Turning to `O=c1c(Br)cnc2onc(-c3ccccc3)n12`, the MIC was 123 µg/mL (≈ 422 µM) with Staphylococcus aureus [1], not below 125 µg/mL with Staphylococcus aureus [2], not below 125 µg/mL in the assay on Staphylococcus aureus [3] and not below 125 µg/mL with Staphylococcus aureus [4].
With `Cn1c(-c2nnc(-c3ccccc3O)o2)cc(Br)c1Br`, the MIC with Staphylococcus aureus [5] is 6.25 µg/mL (≈ 15.7 µM).
As for `CCCCCCCCCCCCCCC(Br)c1nnc(-c2ccco2)o1` (stereo not drawn), the “inhibition zone (IZ)” value in the assay with Staphylococcus aureus [7] was determined as 21.6 mm. Besides, the MIC in the assay with Staphylococcus aureus [8] was determined as 12.5 µg/mL (≈ 29.4 µM).
On to `O=c1c(F)cnc2onc(-c3ccc(Cl)cc3)n12`, for which the MIC in the assay on Staphylococcus aureus [1] was 111 µg/mL (≈ 416 µM); in the assay with Staphylococcus aureus [2], not below 125 µg/mL; in the assay on Staphylococcus aureus [3], not below 125 µg/mL; in the assay on Staphylococcus aureus [4] it was not below 125 µg/mL.
In the case of `CCCCCCCC/C=C/CCCCCCc1nnc(-c2ccco2)o1`, the “inhibition zone (IZ)” value with Staphylococcus aureus [7] was determined as 20.8 mm. Besides, the MIC with Staphylococcus aureus [8] turned out to be 12.5 µg/mL (≈ 34.9 µM).
Turning to `C=Cc1ccc(Oc2nnc(-c3cc(Br)c(Br)n3C)o2)c(OC)c1`, the MIC in the assay with Staphylococcus aureus [5] came out at 25 µg/mL (≈ 54.9 µM).
Consider `O=c1c(Br)cnc2onc(-c3c(F)cccc3F)n12`, for which the MIC in the assay with Staphylococcus aureus [1] stood at 15.8 µg/mL (≈ 48.2 µM); in the assay on Staphylococcus aureus [2], 32.4 µg/mL (≈ 98.8 µM); in the assay with Staphylococcus aureus [3] it was 40.2 µg/mL (≈ 123 µM); in the assay on Staphylococcus aureus [4] it was 40.2 µg/mL (≈ 123 µM).
Regarding `O=c1c(F)cnc2onc(-c3ccc(Cl)cc3Cl)n12`, the MIC in the assay on Staphylococcus aureus [1] is 116 µg/mL (≈ 388 µM); in the assay on Staphylococcus aureus [2] it was not below 125 µg/mL; in the assay with Staphylococcus aureus [3] it was not below 125 µg/mL; with Staphylococcus aureus [4], not below 125 µg/mL.
On to `Cn1c(-c2nnc(-c3cc(Br)c(Br)[nH]3)o2)cc(Br)c1Br`, for which, in the assay on Staphylococcus aureus [5], the MIC turned out to be 1.56 µg/mL (≈ 2.94 µM).
Turning to `C=CCCCCCCCc1nnc(-c2ccccc2Cl)o1`, in the assay on Staphylococcus aureus [7], the “inhibition zone (IZ)” value was 14.4 mm. Moreover, the MIC with Staphylococcus aureus [8] stood at 12.5 µg/mL (≈ 41 µM).
For the compound `Cn1c(-c2nnc(-c3ccc(N)cc3)o2)cc(Br)c1Br`, the MIC in the assay with Staphylococcus aureus [5] was 1.56 µg/mL (≈ 3.92 µM).
In the case of `O=c1c(Br)cnc2onc(-c3ccc(Br)cc3)n12`, the MIC in the assay with Staphylococcus aureus [1] is 114 µg/mL (≈ 306 µM); with Staphylococcus aureus [2], 120 µg/mL (≈ 325 µM); with Staphylococcus aureus [3], not below 125 µg/mL; with Staphylococcus aureus [4], not below 125 µg/mL.
With `Cc1ccc(-c2noc3ncc(Br)c(=O)n23)cc1`, the MIC was 119 µg/mL (≈ 388 µM) with Staphylococcus aureus [1], not below 125 µg/mL in the assay with Staphylococcus aureus [2], not below 125 µg/mL in the assay on Staphylococcus aureus [3] and not below 125 µg/mL with Staphylococcus aureus [4].
With `CCCCCCCCCCCCCCc1nnc(-c2ccccc2Cl)o1`, the “inhibition zone (IZ)” value in the assay on Staphylococcus aureus [7] is 12.1 mm. Also, the MIC in the assay on Staphylococcus aureus [8] worked out at 12.5 µg/mL (≈ 33.2 µM).
As for `COc1ccc(-c2nnc(-c3cc(Br)c(Br)n3C)o2)cc1`, the MIC with Staphylococcus aureus [5] worked out at 1.56 µg/mL (≈ 3.78 µM).
For `Cn1c(-c2nnc(/C=C/c3ccccc3)o2)cc(Br)c1Br`, the MIC with Staphylococcus aureus [5] was found to be 6.25 µg/mL (≈ 15.3 µM).
Regarding `Cc1cc(C)c2occ(/C=C(/c3ccc([N+](=O)[O-])cc3)c3noc(C)n3)c(=O)c2c1`, the MIC in the assay on Staphylococcus aureus [6] was more than 32 µg/mL.
Turning to `O=c1c(F)cnc2onc(-c3cccc(F)c3F)n12`, the MIC with Staphylococcus aureus [1] is 115 µg/mL (≈ 429 µM); in the assay with Staphylococcus aureus [2], not below 125 µg/mL; with Staphylococcus aureus [3], not below 125 µg/mL; with Staphylococcus aureus [4], not below 125 µg/mL.
On to `Cn1c(-c2nnc(Cc3ccccc3)o2)cc(Br)c1Br`, for which the MIC in the assay with Staphylococcus aureus [5] stood at 6.25 µg/mL (≈ 15.7 µM).
For the compound `O=c1c(Br)cnc2onc(-c3ccccc3Cl)n12`, the MIC is 76.4 µg/mL (≈ 234 µM) with Staphylococcus aureus [1], 84.4 µg/mL (≈ 258 µM) in the assay on Staphylococcus aureus [2], 79.4 µg/mL (≈ 243 µM) with Staphylococcus aureus [3] and 79.4 µg/mL (≈ 243 µM) with Staphylococcus aureus [4].
For the compound `C=CCCCCCCCc1nnc(-c2ccco2)o1`, the “inhibition zone (IZ)” value in the assay on Staphylococcus aureus [7] was 11.1 mm. The MIC in the assay with Staphylococcus aureus [8] is 12.5 µg/mL (≈ 48 µM).
For `O=c1c(F)cnc2onc(-c3ccccc3Cl)n12`, the MIC in the assay with Staphylococcus aureus [1], in the assay on Staphylococcus aureus [2], in the assay with Staphylococcus aureus [3] and with Staphylococcus aureus [4] was not below 125 µg/mL throughout.
Take `Cn1c(-c2nnc(-c3cc(F)ccc3Cl)o2)cc(Br)c1Br`: in the assay on Staphylococcus aureus [5], the MIC is 3.12 µg/mL (≈ 7.18 µM).

Source of the values: ChEMBL document CHEMBL5241069, “A key review on oxadiazole analogs as potential methicillin-resistant Staphylococcus aureus (MRSA) activity: Structure-activity relationship studies” (Eur J Med Chem, 2021).
